# ChEMBL document CHEMBL4823254, “Tetrahydroquinoline-Capped Histone Deacetylase 6 Inhibitor SW-101 Ameliorates Pathological Phenotypes in a Charcot-Marie-Tooth Type 2A Mouse Model” (J Med Chem, 2021)
# Molecular target: T1, Histone deacetylase 1 (Homo sapiens, UniProt Q13547)
# Assay: not given
# Settings: not given
# Target sequence in this assay (Q13547 whole entry): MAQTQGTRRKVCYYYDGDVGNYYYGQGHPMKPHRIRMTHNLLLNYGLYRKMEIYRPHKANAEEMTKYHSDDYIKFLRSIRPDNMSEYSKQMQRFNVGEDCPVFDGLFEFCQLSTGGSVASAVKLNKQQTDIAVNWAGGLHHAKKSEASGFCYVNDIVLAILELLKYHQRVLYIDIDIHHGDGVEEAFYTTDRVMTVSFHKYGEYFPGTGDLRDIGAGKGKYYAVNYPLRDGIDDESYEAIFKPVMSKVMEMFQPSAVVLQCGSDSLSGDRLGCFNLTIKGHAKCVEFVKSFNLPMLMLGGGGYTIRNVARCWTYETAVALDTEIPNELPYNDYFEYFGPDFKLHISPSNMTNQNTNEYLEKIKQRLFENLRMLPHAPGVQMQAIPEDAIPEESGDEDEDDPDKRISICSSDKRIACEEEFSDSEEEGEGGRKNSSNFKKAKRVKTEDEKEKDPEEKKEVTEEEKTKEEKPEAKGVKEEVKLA
row,IC50,Structure (SMILES)
1,0.117 µM,O=C(NO)c1ccc(CN2C(=O)CCc3cc(C4CC4)ccc32)cc1

# Molecular target: Protein deacetylase HDAC6, Homo sapiens (UniProt Q9UBN7)
# Assay: biochemical
# Settings: not given
row,Structure (SMILES),IC50
1,CC1(C)CCN(Cc2ccc(C(=O)NO)cc2)c2ccc(F)cc21,0.0451 µM
2,CC1(C)CCc2cc(F)ccc2N1Cc1ccc(C(=O)NO)cc1,0.161 µM
3,CC1(C)CCN(Cc2ccc(C(=O)NO)cc2)c2ccc(Cl)cc21,0.0378 µM

# More lines, now with the values ahead:
row,IC50,Structure (SMILES)
1,0.0034 µM,O=C(NO)c1ccc(CN2CCCc3cc(F)c(Cl)cc32)cc1
2,0.383 µM,CC(c1ccc(C(=O)NO)cc1)N1CCCc2cc(Cl)ccc21 (stereo unspecified)
3,0.328 µM,CC1(C)CCc2cc(Cl)ccc2N1Cc1ccc(C(=O)NO)cc1
4,0.0036 µM,O=C(NO)c1ccc(CN2CCCc3cc(Cl)c(Cl)cc32)cc1
5,0.961 µM,O=C(NO)c1ccc(C(=O)N2CCCc3cc(Cl)ccc32)cc1
6,0.0124 µM,O=C(NO)c1ccc(CN2CCCc3cc(Cl)ccc32)c(F)c1
7,0.0048 µM,O=C(NO)c1ccc(CN2CCCc3cc(Cl)c(F)cc32)cc1

# Molecular target: T2, Protein deacetylase HDAC6 (Mus musculus) (UniProt Q9Z2V5)
# T2 sequence (whole entry): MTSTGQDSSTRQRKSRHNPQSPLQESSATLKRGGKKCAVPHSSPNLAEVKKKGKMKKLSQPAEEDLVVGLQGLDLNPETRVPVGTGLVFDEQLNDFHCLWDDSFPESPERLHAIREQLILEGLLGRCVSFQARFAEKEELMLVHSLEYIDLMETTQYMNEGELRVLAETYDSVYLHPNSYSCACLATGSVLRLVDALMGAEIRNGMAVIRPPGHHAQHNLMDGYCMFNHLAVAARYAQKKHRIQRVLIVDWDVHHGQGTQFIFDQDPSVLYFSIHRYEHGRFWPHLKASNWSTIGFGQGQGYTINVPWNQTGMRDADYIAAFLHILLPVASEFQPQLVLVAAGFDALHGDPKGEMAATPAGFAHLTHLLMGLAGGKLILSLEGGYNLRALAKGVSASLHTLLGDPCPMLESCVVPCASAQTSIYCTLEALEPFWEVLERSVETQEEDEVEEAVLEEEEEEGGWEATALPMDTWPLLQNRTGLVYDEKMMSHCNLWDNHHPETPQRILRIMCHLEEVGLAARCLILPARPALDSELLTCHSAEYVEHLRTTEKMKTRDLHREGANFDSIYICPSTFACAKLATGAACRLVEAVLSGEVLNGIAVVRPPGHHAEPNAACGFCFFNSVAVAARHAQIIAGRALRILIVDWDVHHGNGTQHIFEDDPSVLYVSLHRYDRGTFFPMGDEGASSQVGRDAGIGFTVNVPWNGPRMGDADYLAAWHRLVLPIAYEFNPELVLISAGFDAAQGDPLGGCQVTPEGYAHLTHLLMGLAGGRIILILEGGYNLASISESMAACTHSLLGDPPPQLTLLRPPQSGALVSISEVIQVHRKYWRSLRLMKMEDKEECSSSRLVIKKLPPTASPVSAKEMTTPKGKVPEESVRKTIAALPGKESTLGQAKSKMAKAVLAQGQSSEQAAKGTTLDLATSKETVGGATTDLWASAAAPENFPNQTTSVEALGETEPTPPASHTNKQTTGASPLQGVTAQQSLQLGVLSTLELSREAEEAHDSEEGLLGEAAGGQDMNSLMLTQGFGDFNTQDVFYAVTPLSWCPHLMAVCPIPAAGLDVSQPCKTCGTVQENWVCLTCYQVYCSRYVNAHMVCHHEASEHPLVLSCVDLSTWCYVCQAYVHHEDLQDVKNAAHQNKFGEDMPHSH
# Assay: Inhibition of HDAC6 in mouse Neuro2a cells assessed as fold increase in ratio of acetylated alpha-tubulin to alpha tubulin at 1 uM incubated for overnight by Western blot analysis
# Assay type: cell-based
# Settings: time 12.0 hrs
row,fold change (FC),Structure (SMILES)
1,1.53,O=C(NO)c1ccc(CN2CCCc3cc(F)c(Cl)cc32)cc1
2,1.54,O=C(NO)c1ccc(CN2CCCc3cc(Cl)c(Cl)cc32)cc1
3,1.38,O=C(NO)c1ccc(CN2CCCc3cc(Cl)ccc32)c(F)c1
4,1.11,CN1CCc2c(c3ccccc3n2Cc2ccc(C(=O)NO)cc2)C1
5,1.5,O=C(NO)c1ccc(CN2CCCc3cc(Cl)c(F)cc32)cc1

# Molecular target: T3, Histone deacetylase 8 (Homo sapiens, UniProt Q9BY41)
# T3 sequence (Q9BY41 whole entry): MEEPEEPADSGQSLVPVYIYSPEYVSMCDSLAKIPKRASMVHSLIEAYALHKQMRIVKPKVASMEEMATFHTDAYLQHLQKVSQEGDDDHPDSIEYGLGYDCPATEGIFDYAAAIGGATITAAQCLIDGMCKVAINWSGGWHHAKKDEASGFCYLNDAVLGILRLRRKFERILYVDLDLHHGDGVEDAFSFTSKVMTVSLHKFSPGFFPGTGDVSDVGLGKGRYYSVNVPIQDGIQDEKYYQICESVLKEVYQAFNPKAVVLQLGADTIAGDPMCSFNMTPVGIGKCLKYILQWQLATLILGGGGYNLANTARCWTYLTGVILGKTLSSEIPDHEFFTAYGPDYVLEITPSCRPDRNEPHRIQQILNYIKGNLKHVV
# Assay: not given
# Settings: not given
row,IC50,Structure (SMILES)
1,1.5 µM,O=C(NO)c1ccc(CN2C(=O)CCc3cc(C4CC4)ccc32)cc1

# Test system: not listed separately
# Assay: Stability in CD1 mouse pooled liver microsomes assessed as parent compound remaining measured at 60 mins in presence of NADPH by LC-MS/MS analysis
# Assay type: ADME, Microsome
# Settings: CD1, mouse, pooled liver microsomes, read-out: Stabilty
row,remaining at 1 h,Structure (SMILES)
1,20.3%,CC1(C)CCc2cc(Cl)ccc2N1Cc1ccc(C(=O)NO)cc1
2,17.2%,O=C(NO)c1ccc(CN2CCCc3cc(Cl)ccc32)c(F)c1
3,6.8%,CC1(C)CCN(Cc2ccc(C(=O)NO)cc2)c2ccc(Cl)cc21
4,19.1%,O=C(NO)c1ccc(CN2CCCc3cc(Cl)c(F)cc32)cc1

# Molecular target: T1, Histone deacetylase 1
# Assay: biochemical
# Settings: not given
# Target sequence in this assay (Q13547 whole entry, looked up): as the sequence (Q13547 whole entry) above
row,Structure (SMILES),IC50
1,CC1(C)CCN(Cc2ccc(C(=O)NO)cc2)c2ccc(F)cc21,21.1 µM
2,CC1(C)CCc2cc(F)ccc2N1Cc1ccc(C(=O)NO)cc1,14.1 µM
3,CC1(C)CCN(Cc2ccc(C(=O)NO)cc2)c2ccc(Cl)cc21,19.6 µM

# Other lines, results leading:
row,IC50,Structure (SMILES)
1,1.87 µM,O=C(NO)c1ccc(CN2CCCc3cc(F)c(Cl)cc32)cc1
2,8.43 µM,CC(c1ccc(C(=O)NO)cc1)N1CCCc2cc(Cl)ccc21 (stereo unspecified)
3,19.6 µM,CC1(C)CCc2cc(Cl)ccc2N1Cc1ccc(C(=O)NO)cc1
4,2.62 µM,O=C(NO)c1ccc(CN2CCCc3cc(Cl)c(Cl)cc32)cc1
5,10.5 µM,O=C(NO)c1ccc(C(=O)N2CCCc3cc(Cl)ccc32)cc1
6,21.2 µM,O=C(NO)c1ccc(CN2CCCc3cc(Cl)ccc32)c(F)c1
7,3.22 µM,O=C(NO)c1ccc(CN2CCCc3cc(Cl)c(F)cc32)cc1

# Test system: not listed separately
# Assay: Half life in CD1 mouse pooled liver microsomes assessed as parent compound remaining measured up to 60 mins in presence of NADPH by LC-MS/MS analysis
# Assay type: ADME, Microsome
# Settings: CD1, mouse, pooled liver microsomes
row,half-life,Structure (SMILES)
1,25.4 min,CC1(C)CCc2cc(Cl)ccc2N1Cc1ccc(C(=O)NO)cc1
2,24.8 min,O=C(NO)c1ccc(CN2CCCc3cc(Cl)ccc32)c(F)c1
3,15.9 min,CC1(C)CCN(Cc2ccc(C(=O)NO)cc2)c2ccc(Cl)cc21
4,25.7 min,O=C(NO)c1ccc(CN2CCCc3cc(Cl)c(F)cc32)cc1

# Organism: Homo sapiens
# Assay: not given
# Settings: not given
row,Structure (SMILES),Ratio IC50
1,CC1(C)CCN(Cc2ccc(C(=O)NO)cc2)c2ccc(F)cc21,468
2,O=C(NO)c1ccc(CN2CCCc3cc(F)c(Cl)cc32)cc1,550
3,CC(c1ccc(C(=O)NO)cc1)N1CCCc2cc(Cl)ccc21 (stereo unspecified),22
4,CC1(C)CCc2cc(Cl)ccc2N1Cc1ccc(C(=O)NO)cc1,60
5,O=C(NO)c1ccc(CN2CCCc3cc(Cl)c(Cl)cc32)cc1,728
6,CC1(C)CCc2cc(F)ccc2N1Cc1ccc(C(=O)NO)cc1,88
7,O=C(NO)c1ccc(C(=O)N2CCCc3cc(Cl)ccc32)cc1,11
8,O=C(NO)c1ccc(CN2CCCc3cc(Cl)ccc32)c(F)c1,1710
9,CC1(C)CCN(Cc2ccc(C(=O)NO)cc2)c2ccc(Cl)cc21,519
10,O=C(NO)c1ccc(CN2CCCc3cc(Cl)c(F)cc32)cc1,670

# Molecular target: T4, Protein deacetylase HDAC6 (Homo sapiens, UniProt Q9UBN7)
# T4 sequence (Q9UBN7 whole entry): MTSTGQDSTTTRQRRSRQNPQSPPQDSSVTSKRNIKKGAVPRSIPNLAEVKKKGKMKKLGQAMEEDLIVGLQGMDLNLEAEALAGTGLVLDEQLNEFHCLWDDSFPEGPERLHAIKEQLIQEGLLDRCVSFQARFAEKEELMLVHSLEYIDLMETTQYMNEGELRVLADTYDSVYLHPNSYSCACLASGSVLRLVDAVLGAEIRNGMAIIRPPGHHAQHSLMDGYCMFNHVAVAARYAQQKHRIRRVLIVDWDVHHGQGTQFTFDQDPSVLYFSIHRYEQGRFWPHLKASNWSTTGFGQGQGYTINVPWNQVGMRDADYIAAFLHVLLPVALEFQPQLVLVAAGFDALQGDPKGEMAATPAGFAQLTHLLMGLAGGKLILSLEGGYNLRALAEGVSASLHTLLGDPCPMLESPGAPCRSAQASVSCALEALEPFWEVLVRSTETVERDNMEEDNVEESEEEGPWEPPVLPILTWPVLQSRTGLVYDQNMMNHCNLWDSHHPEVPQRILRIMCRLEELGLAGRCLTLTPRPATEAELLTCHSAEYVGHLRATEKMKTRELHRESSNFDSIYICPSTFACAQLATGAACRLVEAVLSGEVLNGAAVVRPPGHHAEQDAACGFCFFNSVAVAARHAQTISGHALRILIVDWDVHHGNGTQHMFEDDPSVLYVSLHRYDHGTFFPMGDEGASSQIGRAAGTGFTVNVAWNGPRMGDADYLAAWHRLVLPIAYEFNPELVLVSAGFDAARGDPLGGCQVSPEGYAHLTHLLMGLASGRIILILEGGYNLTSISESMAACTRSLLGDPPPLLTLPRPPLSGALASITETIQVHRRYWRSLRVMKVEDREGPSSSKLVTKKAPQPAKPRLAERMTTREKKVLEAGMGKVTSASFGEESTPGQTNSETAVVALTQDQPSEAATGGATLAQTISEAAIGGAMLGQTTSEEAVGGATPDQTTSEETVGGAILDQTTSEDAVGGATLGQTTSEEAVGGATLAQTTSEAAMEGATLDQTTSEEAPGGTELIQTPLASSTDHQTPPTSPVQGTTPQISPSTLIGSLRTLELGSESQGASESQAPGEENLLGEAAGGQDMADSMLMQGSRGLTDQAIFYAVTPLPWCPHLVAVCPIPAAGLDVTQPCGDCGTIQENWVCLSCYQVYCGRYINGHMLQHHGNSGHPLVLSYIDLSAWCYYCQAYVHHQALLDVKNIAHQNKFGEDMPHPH
# Assay: not given
# Settings: not given
row,IC50,Structure (SMILES)
1,0.0027 µM,O=C(NO)c1ccc(CN2C(=O)CCc3cc(C4CC4)ccc32)cc1

# Molecular target: T2, Protein deacetylase HDAC6 (Mus musculus)
# Assay: Inhibition of HDAC6 in mouse Neuro2a cells assessed as fold increase in ratio of acetylated alpha-tubulin to alpha tubulin at 0.01 uM incubated for overnight by Western blot analysis
# Assay type: cell-based
# Settings: time 12.0 hrs
row,fold change (FC),Structure (SMILES)
1,1.14,O=C(NO)c1ccc(CN2CCCc3cc(F)c(Cl)cc32)cc1
2,1.38,O=C(NO)c1ccc(CN2CCCc3cc(Cl)c(Cl)cc32)cc1
3,1.21,O=C(NO)c1ccc(CN2CCCc3cc(Cl)ccc32)c(F)c1
4,0.91,CN1CCc2c(c3ccccc3n2Cc2ccc(C(=O)NO)cc2)C1
5,1.16,O=C(NO)c1ccc(CN2CCCc3cc(Cl)c(F)cc32)cc1
